Tests used:
IL-1β mRNA = IL-1β mRNA expression in liver of MCD diet-fed mice (quantitative real-time PCR); assay type: in vivo, mice (male C57BI/6J); settings: ibudilast 10, 30 or 100 mg/kg orally twice a day for 14 days (FIG. 6), relative to 18S rRNA
Protocol: (§1) Effects of ibudilast on the hepatic inflammation and hepatic fibrosis were examined using methionine- and choline-deficient (MCD) diet-fed mice which induced hepatic inflammation and hepatic fibrosis involved in human pathological conditions like NASH. The MCD diet (Oriental Yeast Co., Ltd.) produced in accordance with the previous report by Okumura et al. (Okumura, K., et al. 2006, Hepatol. Res., 36: 217-228) was administered to male C57BI/6J mice (CLEA Japan, Inc.) at ten weeks of age for six weeks. […] Thereafter, TNFα, MCP-1, IL-1β, TGFβ, and col1a1 mRNA expressions in isolated liver were measured using the quantitative real-time PCR method. The 18S rRNA mRNA expression was used as an internal standard of the quantitative real-time PCR method and similarly measured. […] The quantitative real-time PCR was performed using TaqMan Fast Universal PCR Master Mix (Applied Biosystems) and Applied Biosystems 7500 Fast Real-Time PCR System (Applied Biosystems). […] Moreover, each operation relating to the quantitative real-time PCR was carried out in accordance with the manual attached to each reagent, kits and device. […]

MCP-1 mRNA = MCP-1 mRNA expression in liver of MCD diet-fed mice (quantitative real-time PCR); assay type: in vivo, mice (male C57BI/6J); settings: ibudilast 10, 30 or 100 mg/kg orally twice a day for 14 days (FIG. 5), relative to 18S rRNA
Protocol: as §1

TGFβ mRNA = TGFβ mRNA expression in liver of MCD diet-fed mice (quantitative real-time PCR); assay type: in vivo, mice (male C57BI/6J); settings: ibudilast 10, 30 or 100 mg/kg orally twice a day for 14 days (FIG. 7), relative to 18S rRNA
Protocol: as §1

col1a1 mRNA = col1a1 mRNA expression in liver of MCD diet-fed mice (quantitative real-time PCR); assay type: in vivo, mice (male C57BI/6J); settings: ibudilast 10, 30 or 100 mg/kg orally twice a day for 14 days (FIG. 8), relative to 18S rRNA
Protocol: as §1

[1] = tested on: triglyceride content in liver; experiment: Hepatic triglyceride content in ob/ob mice (obesity-related fatty liver model); assay type: in vivo, mice (male ob/ob, B6.V-Lep^ob/J); settings: ibudilast 10, 30 or 100 mg/kg orally twice a day for two weeks (FIG. 3), vs. vehicle
Protocol: Obesity and insulin resistance are regarded as a major pathologic basis in NAFLD (Kristina, M., et al. 2006, J. Clin Endocrinol Metab., 91: 4753-4761). Therefore, effect of ibudilast on fatty liver was evaluated using B6.V-Lep^ob/J mice (ob/ob; Charles River Laboratories Japan, Inc.), a model of obesity-related insulin resistance and fatty liver. Male ob/ob mice (Charles River Laboratories Japan, Inc.) at seven weeks of age were used. To the vehicle group as a control, 2% (v/v) of PEG-60 hydrogenated castor oil (NIKKOL HCO-60, Nikko Chemicals Co., Ltd.) was orally administrated twice a day. To ibudilast groups, 10, 30 or 100 mg/kg of ibudilast which was dissolved to 2% (v/v). of PEG-60 hydrogenated castor oil was orally administered twice a day. At 15 to 21 hours after the end of two weeks administration period, the mice were dissected in the fed state. The content of triglyceride in isolated liver was measured. Triglyceride was extracted from the liver by using improved method of Folch et al. (Folch, J., et al. 1957. J. Biol. Chem., 226: 497-509). Tissues were homogenized by using chloroform methanol mixture 2:1 (v/v). […] The dried extract was dissolved to 4% (v/v) of Triton X-100 and the triglyceride concentration was measured using Liquitech TG-II reagent (Roche Diagnostics K. K.). […]

TNFα mRNA = TNFα mRNA expression in liver of MCD diet-fed mice (quantitative real-time PCR); assay type: in vivo, mice (male C57BI/6J); settings: ibudilast 10, 30 or 100 mg/kg orally twice a day for 14 days (FIG. 4), relative to 18S rRNA
Protocol: as §1

[2] = tested on: content of triglyceride in the liver; experiment: Hepatic triglyceride content in fasted/re-fed mice (fatty liver model); assay type: in vivo, mice (male C57BI/6J); settings: re-fed mice after 48 h fasting; ibudilast 10 and 100 mg/kg orally twice a day (FIG. 2); vs. vehicle
Text: In NAFLD, it is regarded that the increase of the fatty acid synthesis in the liver is an important factor involved in the fatty liver formation (Shinji, T., et al. 2005. J. Clin. Invest. 115: 1139-1142). Therefore, with reference to methods described in Delzenne et al. (Delzenne, N. M., et al., 1997, J. HepatoL, 26: 880-885) and Tsuchida et al. (Tsuchida. A., et al., 2004, J. Bio. Chem., 279: 30817-30822), effects of ibudilast on the fatty liver were examined by using re-fed mice in which the fatty acid synthesis in the liver is enhanced. After 48 hours of fasting, male C57BI/6J mice at 8 weeks of age (CLEA Japan, Inc.) were refed for four hours. To the vehicle group as a control, 2% (v/v) of PEG-60 hydrogenated castor oil (NIKKOL HCO-60, Nikko Chemicals Co., Ltd.) was orally administrated before fasting and after fasting periods of 12, 24, 36, and 48 hours. To ibudilast groups, […] or 100 mg/kg of ibudilast which was dissolved to 2% (v/v) of PEG-60 hydrogenated castor oil was orally administered before fasting and after fasting periods of 12, 24, 36, and 48 hours. […] The content of triglyceride and biosynthesis of fatty acid in isolated liver were measured. […] The dried extract was dissolved to 4% (v/v) of Triton X-100 and the triglyceride concentration was measured using Liquitech TG-II reagent (Roche Diagnostics K. K.). […]

[3] = tested on: fatty acid synthesis in the liver; experiment: Hepatic fatty acid synthesis from [1-14C]acetic acid in fasted/re-fed mice (fatty liver model); assay type: in vivo, mice (male C57BI/6J); settings: re-fed mice after 48 h fasting; ibudilast 10 and 100 mg/kg orally twice a day (FIG. 1); vs. vehicle
Text: In NAFLD, it is regarded that the increase of the fatty acid synthesis in the liver is an important factor involved in the fatty liver formation (Shinji, T., et al. 2005. J. Clin. Invest. 115: 1139-1142). Therefore, with reference to methods described in Delzenne et al. (Delzenne, N. M., et al., 1997, J. HepatoL, 26: 880-885) and Tsuchida et al. (Tsuchida. A., et al., 2004, J. Bio. Chem., 279: 30817-30822), effects of ibudilast on the fatty liver were examined by using re-fed mice in which the fatty acid synthesis in the liver is enhanced.
After 48 hours of fasting, male C57BI/6J mice at 8 weeks of age (CLEA Japan, Inc.) were refed for four hours. […]
The mice were refed with standard diet (CE-2, CLEA Japan, Inc.) after 30 minutes of the oral administration after fasting periods of 48 hours, and the mice were anatomized after refeeding periods of four hours. The content of triglyceride and biosynthesis of fatty acid in isolated liver were measured.
The fatty acid synthesis in the liver was measured using the fatty acid synthesis from the acetic acid. […]
After centrifugation, the chloroform layer was obtained as the lower layer. After the dried residue was dissolved to methanol, the scintillation cocktail was mixed with the obtained solution to measure radioactivity using liquid scintillation counter (Tri-Crab 1900CA, PerkinElmer). […]

SMILES: CC(C)C(=O)c1c(C(C)C)nn2ccccc12 [Ibudilast, ibudilast]
- mRNA expression of IL-1β in liver (index of hepatic inflammation) (IL-1β mRNA): decrease
- mRNA expression of MCP-1 in liver (index of hepatic inflammation) (MCP-1 mRNA): decrease
- mRNA expression of TGFβ in liver (index of hepatic fibrosis) (TGFβ mRNA): decrease
- mRNA expression of collal in liver (index of hepatic fibrosis) (col1a1 mRNA): decrease
- triglyceride content in liver [1]: significantly decreased
- mRNA expression of TNFα in liver (index of hepatic inflammation) (TNFα mRNA): decrease
- content of triglyceride in the liver [2]: significantly decreased
- fatty acid synthesis in the liver [3]: decreased

— patent publication US20130143913A1, “PROPHYLACTIC OR THERAPEUTIC AGENT FOR NON-ALCOHOLIC STEATOHEPATITIS” (KYORIN PHARMACEUTICAL CO., LTD., priority 2010, published 2013)
